# Experiments:
# Format in all cases: cell-based
# [1] = system: K. pneumoniae strain MP-548; experiment: Broth dilution MIC determination (CLSI) against K. pneumoniae strain MP-548; details: Klebsiella pneumoniae, MP548
# How it was run: (§1)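 MICs were determined by CLSI standard broth dilution. Values are binned: "+++" ≤4 mg/L, "++" ≥8 and <32 mg/L, "+" ≥32 mg/L.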
# E. coli strain MP-4 = experiment: Broth dilution MIC determination (CLSI) against E. coli strain MP-4; details: Escherichia coli, MP4
# How it was run: as §1
# [2] = system: P. aeruginosa strain MP-3; experiment: Broth dilution MIC determination (CLSI) against P. aeruginosa strain MP-3; details: Pseudomonas aeruginosa, MP3
# How it was run: as §1
# [3] = system: A. baumannii strain MP-15; experiment: Broth dilution MIC determination (CLSI) against A. baumannii strain MP-15; details: Acinetobacter baumannii, MP15
# How it was run: as §1
# S. aureus strain MP-12 = experiment: Broth dilution MIC determination (CLSI) against S. aureus strain MP-12; details: Staphylococcus aureus, MP12, strain MP-12
# How it was run: as §1
MIC [1] [µg/mL],MIC (E. coli strain MP-4) [µg/mL],MIC [2] [µg/mL],MIC [3] [µg/mL],MIC (S. aureus strain MP-12) [µg/mL],SMILES
≥ 32,≥ 32,≥ 32,≥ 32,≥ 32,"CC[C@H]1OC(=O)C(C)C(=O)[C@H](C)[C@@H](OC2OC(CN(C)C(C)=O)CC(N(C)C)C2O)[C@](C)(OC)C[C@@H](C)CN[C@H](C)[C@H]2NC(=O)O[C@@]21C (some centres unmarked) [Compound 169, 3-Descladinosyl-3-oxo-6-O-methyl-N9a-desmethyl-11,12-dideoxy-12,11-(oxycarbonylimino)-6′-(N-methyl-N-acetylamino) Azithromycin]"
≥ 32,8 to 32,≥ 32,≥ 32,≥ 32,CC[C@H]1OC(=O)C(C)C(=O)[C@H](C)[C@@H](O[C@@H]2OC(CNCC3COC3)CC(N(C)C)C2O)[C@](C)(OC)C[C@@H](C)CN[C@H](C)[C@H]2NC(=O)O[C@@]21C (some centres unmarked) [Compound 56]
≥ 32,≥ 32,≥ 32,≥ 32,≥ 32,"CC[C@H]1OC(=O)C(C)C(=O)[C@H](C)[C@@H](OC2OC(C(=O)N(C)C)CC(N(C)C)C2O)[C@](C)(OC)C[C@@H](C)CN[C@H](C)[C@H]2NC(=O)O[C@@]21C (some centres unmarked) [Compound 167, 3-Descladinosyl-3-oxo-6-O-methyl-N9a-desmethyl-11,12-dideoxy-12,11-(oxycarbonylimino)-5′-desmethyl-5′-(N,N-dimethylcarboxamido) Azithromycin]"
≥ 32,8 to 32,≥ 32,≥ 32,≥ 32,"CC[C@H]1OC(=O)C(C)C(=O)[C@H](C)[C@@H](OC2OC(CN(C)C(=O)C(C)(C)C)CC(N(C)C)C2O)[C@](C)(OC)C[C@@H](C)CN[C@H](C)[C@H]2NC(=O)O[C@@]21C (some centres unmarked) [Compound 170, 3-Descladinosyl-3-oxo-6-O-methyl-N9a-desmethyl-11,12-dideoxy-12,11-(oxycarbonylimino)-6′-(N-methyl-N-pivaloylamino) Azithromycin]"
8 to 32,≤ 4,≥ 32,≥ 32,≥ 32,"CC[C@H]1OC(=O)C(C)C(=O)[C@H](C)[C@@H](OC2OC(CN(C)C)CC(N(C)C)C2O)[C@](C)(OC)C[C@@H](C)CN(C)[C@H](C)[C@H]2NC(=O)O[C@@]21C (some centres unmarked) [Compound 159, 3-Descladinosyl-3-oxo-6-O-methyl-11,12-dideoxy-12,11-(oxycarbonylimino)-6′-dimethylamino Azithromycin]"
≥ 32,8 to 32,≥ 32,≥ 32,≥ 32,CC[C@H]1OC(=O)C(C)C(=O)[C@H](C)[C@@H](O[C@@H]2OC(CN(C)Cc3ccc(F)cc3)CC(N(C)C)C2O)[C@](C)(OC)C[C@@H](C)CN[C@H](C)[C@H]2NC(=O)O[C@@]21C (some centres unmarked) [Compound 34]
8 to 32,≤ 4,≥ 32,≥ 32,8 to 32,CC[C@H]1OC(=O)C(C)C(=O)[C@H](C)[C@@H](O[C@@H]2OC(CNc3ccc(F)cc3)CC(N(C)C)C2O)[C@](C)(OC)C[C@@H](C)CN[C@H](C)[C@H]2NC(=O)O[C@@]21C (some centres unmarked) [Compound 46]
8 to 32,≤ 4,≥ 32,≥ 32,8 to 32,CC[C@H]1OC(=O)C(C)C(=O)[C@H](C)[C@@H](O[C@@H]2OC(CNc3ccccc3F)CC(N(C)C)C2O)[C@](C)(OC)C[C@@H](C)CN[C@H](C)[C@H]2NC(=O)O[C@@]21C (some centres unmarked) [Compound 47]

# The remaining lines, values behind:
SMILES,MIC [1] [µg/mL],MIC (E. coli strain MP-4) [µg/mL],MIC [2] [µg/mL],MIC [3] [µg/mL],MIC (S. aureus strain MP-12) [µg/mL]
CC[C@H]1OC(=O)C(C)C(=O)[C@H](C)[C@@H](O[C@@H]2OC(CNCc3ccc(C#N)cc3)CC(N(C)C)C2O)[C@](C)(OC)C[C@@H](C)CN[C@H](C)[C@H]2NC(=O)O[C@@]21C (some centres unmarked) [Compound 40],≥ 32,≤ 4,≥ 32,≥ 32,≥ 32
CC[C@H]1OC(=O)[C@@]2(C)CCO[C@](C)(C[C@@H](C)CN[C@H](C)[C@H]3NC(=O)O[C@@]31C)[C@H](O[C@@H]1O[C@H](CNC34CC(C3)C4)C[C@H](N(C)C)[C@H]1O)[C@@H](C)C2=O [Compound 204],≤ 4,≤ 4,≥ 32,8 to 32,≤ 4
CC[C@H]1OC(=O)[C@@]2(C)CCOC(C)(C[C@@H](C)CN(C)[C@H](C)[C@H]3NC(=O)O[C@@]31C)[C@H](O[C@@H]1OC(CN)CC(N(C)C)C1O)[C@@H](C)C2=O (some centres unmarked) [Compound 218],≥ 32,8 to 32,≥ 32,≥ 32,8 to 32
CC[C@H]1OC(=O)[C@@](C)(F)C(=O)[C@H](C)[C@@H](O[C@@H]2OC(CNc3ccc(-c4cncnc4)cc3)CC(N(C)C)C2O)[C@](C)(OC)C[C@@H](C)C(=O)[C@H](C)[C@H]2NC(=O)O[C@@]21C (some centres unmarked) [Compound 94],≥ 32,≥ 32,≥ 32,8 to 32,≤ 4
CC[C@H]1OC(=O)[C@@]2(C)CCOC(C)(C[C@@H](C)CN(C3CC3)[C@H](C)[C@H]3NC(=O)O[C@@]31C)[C@H](O[C@@H]1OC(C)CC(N(C)C)C1O)[C@@H](C)C2=O (some centres unmarked) [Compound 210],≥ 32,8 to 32,≥ 32,≥ 32,≤ 4
